Laboratory results: ChEMBL document CHEMBL3870328, “Synthesis of novel Ral inhibitors: An in vitro and in vivo study” (Bioorg Med Chem Lett, 2016)

Experiments:
[1] = Drug metabolism in mouse xenografted with human NCI-H2122 cells assessed as 6-amino-4-(2,5-dihydroxyphenyl)-3-(naphthalen-2-yl)-1,4-dihydropyrano[2,3-c]pyrazole-5-carbonitrile metabolite formation in liver at 50 mg/kg, ip after 3 hrs by LC-MS/MS analysis; assay type: ADME, organism-based; settings: in vivo
[2] = Drug metabolism in mouse xenografted with human NCI-H2122 cells assessed as M1 metabolite formation in heart at 50 mg/kg, ip after 3 hrs by LC-MS/MS analysis; assay type: ADME, organism-based; settings: in vivo
[3] = Drug metabolism in mouse xenografted with human NCI-H2122 cells assessed as 6-amino-4-(2,5-dihydroxyphenyl)-3-(naphthalen-2-yl)-1,4-dihydropyrano[2,3-c]pyrazole-5-carbonitrile metabolite formation in tumor at 50 mg/kg, ip after 3 hrs by LC-MS/MS analysis; assay type: ADME, organism-based, Neoplasm; settings: in vivo
[4] = Plasma concentration in mouse xenografted with human NCI-H2122 cells at 50 mg/kg, ip after 3 hrs by LC-MS/MS analysis; assay type: ADME, organism-based
[5] = Drug metabolism in mouse xenografted with human NCI-H2122 cells assessed as M3 metabolite formation in kidney at 50 mg/kg, ip after 3 hrs by LC-MS/MS analysis; assay type: ADME, organism-based; settings: in vivo
[6] = Drug metabolism in mouse xenografted with human NCI-H2122 cells assessed as M4 metabolite formation in kidney at 50 mg/kg, ip after 3 hrs by LC-MS/MS analysis; assay type: ADME, organism-based; settings: in vivo
[7] = Drug uptake in heart of mouse xenografted with human NCI-H2122 cells at 50 mg/kg, ip after 3 hrs by LC-MS/MS analysis; assay type: ADME, organism-based; settings: read-out: Drug uptake
[8] = Drug metabolism in mouse xenografted with human NCI-H2122 cells assessed as M1 metabolite formation in kidney at 50 mg/kg, ip after 3 hrs by LC-MS/MS analysis; assay type: ADME, organism-based; settings: in vivo
[9] = Drug metabolism in mouse xenografted with human NCI-H2122 cells assessed as M1 metabolite formation in tumor at 50 mg/kg, ip after 3 hrs by LC-MS/MS analysis; assay type: ADME, organism-based, Neoplasm; settings: in vivo
[10] = Drug metabolism in mouse xenografted with human NCI-H2122 cells assessed as M4 metabolite formation in heart at 50 mg/kg, ip after 3 hrs by LC-MS/MS analysis; assay type: ADME, organism-based; settings: in vivo

## COc1ccc(OC)c(C2C(C#N)=C(N)Oc3[nH]nc(-c4ccc5ccccc5c4)c32)c1 (stereo not given)
[1]
  Drug metabolism: 160.8 ng/g
[2]
  Drug metabolism: 12.4 ng/g
[3]
  Drug metabolism: 0.6 ng/g
[4]
  concentration at 3 h: 3910 ng/mL
[5]
  Drug metabolism: 4.1 ng/g
[6]
  Drug metabolism: 260 ng/g
[7]
  concentration at 3 h: 13700 ng/g
[8]
  Drug metabolism: 135.2 ng/g
[9]
  Drug metabolism: 7.4 ng/g
[10]
  Drug metabolism: 33.5 ng/g
